Test [1] relates to TGase. The test is described as follows: TGase activity in mouse striatal homogenates. In kind it is in vivo. The note with it: 500 μM GTPγS, all mouse groups.
Description: TGase II Activity Assay. TGase activity was measured by detecting the incorporation of a biotinylated TGase amine substrate, 5-(biotinamido)pentylamine (Pierce, Rockford, Ill.) into N,N'-dimethylcasein (Calbiochem, San Diego, Calif.) as previously described (Dudek et al., 2009). 96-well Immulon 4 HBX plates (Dynatech, Franklin, Mass.) were coated with 100 μl of N,N′-dimethylcasein (20 mg/ml) in 0.05M sodium bicarbonate, and stored at 4° C. overnight. After the unbound N,N′-dimethylcasein was discarded, the plate was washed with PBS and blocked with nonfat dry milk (2% milk in PBS) for 1 hour at 37° C., followed by 3 washes with PBS. Striatum from the various mice were homogenized in 0.1 M Tris-HCl pH 8.3, 1 mM EDTA, 1 mM PMSF, and protease inhibitor cocktail. Striatal homogenates (15 μg of protein/sample) were added to the plate with 0.1 M Tris-HCl pH 8.5, 0.15 M NaCl, 5 mM DTT, 0.5 mM biotin-labeled pentylamine, and 5 mM CaCl2. The mixture was incubated for 1 hour at 37° C. The plate was washed with TBS and 0.001% Tween followed by incubation with streptavidin conjugated to HRP (Jackson ImmunoResearch, West Grove, Pa.) for 1 hour at room temperature. […] Then the reaction was stopped with 3N sulfuric acid and the absorbance was read at 450 nm. […] Each sample was measured in triplicate.
Test [2] addresses T1, htt-exon1-44Q binding to CaM (Homo sapiens, UniProt P42858, INS38QQQQQQQQQQQQQQQQQQQQQQQ).
T1 construct: encoding exon 1 of huntingtin with 44 glutamine residues; MBP; host or cells: Escherichia coli
The test is described as follows: In vitro mutant huntingtin-calmodulin binding (calmodulin-agarose).

The test system of test [3] is HD transgenic mice. The settings on record: cited from earlier work.
For test [4], the system named is cells expressing mutant huntingtin and TG. The note with it: cited from earlier work.
Test [5] has as its target T2, mutant huntingtin (htt-N63-148Q) (Homo sapiens, UniProt P42858, INS26QQQQQQQQQQ/INS27QQQQQQQQQQ/INS28QQQQQQQQQQ/INS29QQQQQQQQQQ/INS30QQQQQQQQQQ/INS31QQQQQQQQQQ/INS32QQQQQQQQQQ/INS33QQQQQQQQQQ/INS34QQQQQQQQQQ/INS35QQQQQQQQQQ/INS36QQQQQQQQQQ/INS37QQQQQQQQQQ/INS38QQQQQQQ).
T2 construct: myc; expressed in transfected cells; host or cells: HEK-293T
Put plainly: TG-modified huntingtin (81D4 immunoprecipitation and immunoblot) in transfected HEK-293T cells. In kind it is cell-based. The settings on record: HEK-293T cells with htt-N63-148Q, TG2 and CaM construct vs vector control. On the technique in general: In western blotting, separated proteins are transferred to a membrane and probed.
Description: HEK-293T cells were grown in OptiMEM reduced serum medium (Invitrogen, Carlsbad, Calif.) containing nonessential amino acids, antimycotic and antibiotic agents, and 10% FBS, in the presence of 5% CO2 at 37° C. Cells were grown to 80-90% confluency and transfected using Lipofectamine Plus (Invitrogen, Carlsbald, Calif.). […] Forty-eight hours after transfection, cells were harvested and resuspened in lysis buffer containing 50 mM Tris-HCl, pH 8.8, 100 mM NaCl, 5 mM MgCl2, 0.05% NP-40, 1 mM EDTA (Tang T S, Tu H, Chan E Y, et al. Huntingtin and huntingtin-associated protein 1 influence neuronal calcium signaling mediated by inositol-(1,4,5)triphosphate receptor type 1. Neuron 2003;39:227-239) and 1:1,000 protease inhibitor mixture (Sigma, St. Louis, Mo.). […]
Immunoblots. […] Signal was detected using enhanced chemiluminescence (ECL) Western blotting detection reagents (Amersham Biosciences, Piscataway, N.J.). Immunoblots were quantified by calculating the sum of the densities of all of the pixels within each protein band as the integrated optical density (IOD), using Scion Image for Windows (Scion, Frederick, Md.). Film background IOD was measured and subtracted from each band IOD. Measurements were done in triplicate and the mean was calculated.

Test [6] has as its system transglutaminase. The test is described as follows: In situ transglutaminase assay in intact cells. It is filed as cell-based, human. The settings on record: SHSY5Y-htt-N63-148Q cells.
Description: In situ transglutaminase assay. In this in situ assay, transglutaminase activity is measured in intact cells via incorporation of a polyamine and the presence of the transglutaminase-catalyzed bond. Forty-two hours post viral infection, cells were treated with 2 mM 5-(biotinamido)pentylamine, a biotinylated polyamine (Pierce, Rockford, Ill.), and 6 hours post polyamine treatment, cells were harvested and lysed in 0.1 M Tris-HCl pH 8.3, 1 mM EDTA, 1 mM PMSF, and protease inhibitor cocktail. 96-well Immulon 4 HBX plates (Dynatech, Franklin, Mass.) were coated with anti-ε-(γ-glutamyl)lysine (81D4) antibody (CovalAb, Lyon, France) in 0.1 M Na2HPO4.7 H2O pH 9 overnight at 4° C. Then the plates were washed with PBS and blocked with 2% milk in PBS for 1 hour at room temperature, followed by 3 washes with PBS with 0.0375% Tween. Cell lysates (50 μg of protein/sample/well) were added to the wells in triplicates and incubated for 1 hour at 37° C. The plate was washed with PBS and 0.0375% Tween, followed by incubation with streptavidin conjugated to HRP (Jackson ImmunoResearch, West Grove, Pa.) for 1 hour at room temperature. After final washes, a 1×TMB substrate solution (eBioscience, SanDiego, Calif.) was added and color was allowed to develop for 5-10 minutes. The reaction was stopped with 3 N sulfuric acid and the absorbance was read at 450 nm.

The source of these data is US20100069304A1, “PROTECTIVE EFFECTS OF INHIBITING THE INTERACTION OF CALMODULIN AND MUTANT HUNTINGTIN PROTEIN” (priority 2008, published 2010).

“Also recorded” adds a separate entry of the source.

T2 sequence (P42858 with tags, fused parts or gaps limits assumed, stated change not applied): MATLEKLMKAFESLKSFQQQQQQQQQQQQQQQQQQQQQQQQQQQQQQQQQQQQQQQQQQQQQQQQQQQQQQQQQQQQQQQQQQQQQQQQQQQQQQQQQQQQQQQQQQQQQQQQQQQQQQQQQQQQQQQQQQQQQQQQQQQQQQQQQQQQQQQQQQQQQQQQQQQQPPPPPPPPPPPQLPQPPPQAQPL
T1 sequence (P42858 with tags, fused parts or gaps with the stated changes limits assumed): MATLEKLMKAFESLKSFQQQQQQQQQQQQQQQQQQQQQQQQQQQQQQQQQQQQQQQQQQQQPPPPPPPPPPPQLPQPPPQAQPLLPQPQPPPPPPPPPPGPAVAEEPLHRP

In the case of `Nc1nc2c(ncn2[C@@H]2O[C@H](COP(=O)(O)OP(=O)(O)OP(O)(O)=S)[C@@H](O)[C@H]2O)c(=O)[nH]1` [GTPγS], in test [1], the “reduction of TGase activity” value is listed as “at least 60%”. On to `Cl.NCCCCCCNS(=O)(=O)c1cccc2ccccc12` [W-5, N-(6-Aminohexyl)-1-naphthalenesulfonamide hydrochloride], for which the entries for the “amount of CaM-bound htt-exon1-44Q” value in test [2] (664 μM W-5 along with 10 μM of CaM-peptide) and in test [2] (W-5 alone) were “significantly increased” and “did not affect the amount of CaM-bound htt-exonl-44Q”, respectively. On to `NCCSSCCN` [cystamine], for which, in test [3], the survival result is listed as “increase survival”. For the same compound, in test [4], the cell survival entry is given as “increased cell survival” and the cross-linking of huntingtin entry is “decreased the cross-linking of huntingtin”. Turning to “CaM-N-term: calmodulin fragment: first 76 amino acids, contains the first two Ca2+ binding sites”, in test [5], the “TG-modified huntingtin compared to control cells (in words)” value is given as “no significant decrease in TG-modified huntingtin, but rather an increase; also recorded: did not reduce the TG-catalyzed modifications of huntingtin”. “GDTVEREKDAYNSLEGFDNTIHTLRADIGMVEEVAKSKRDEEFLE [scram-CaM-peptide]”: in test [6], the “total TG activity in situ between infections” value is listed as “no significant difference in total TG activity”.
